Each structure is given as a SMILES string.

The subject of the experiment is isolierten Rattenherzen. Description: Isolated rat heart, method II: coronary flow throttled by 75 %, prevention of the fall in contraction amplitude. The arrangement: species or system Ratten. The conditions noted are these: Method II: coronary flow reduced by 75 %; substance added to perfusion medium during flow reduction; concentration needed to prevent the fall in contraction amplitude; read-out: Benötige Konzentrationen. The source says: Wird ein, längere Zeit unter ischämischen Bedingungen gehaltenes, isoliertes Herz wieder normal perfundiert, so tritt keine sofortige Normalisierung der Herzfunktion ein. Es findet sich vielmehr eine vorübergehende Periode, die durch Kontraktur und Arrhytmien gekennzeichnet ist. Diese Arrhythmiephase ist durch Veränderungen von Funktion und Struktur der Myocardzelle mit intrazellulärer Calciumüberladung bedingt (Hess u. Manson, J. Mol. Cell. Cardiol. 16, 969, 1984). Cardioprotektiv wirksame Verbindungen wie Verapamil und Diltiazem verringern die Calciumüberladung und verbessern das Kontraktionsverhalten bei Reperfusion (Watts et al, Am. J. Physiol. 238, H 909, 1980; Meno et al, Am. J. Physiol. 247, H 380, 1984), Die cardioprotektive Wirkung wird an isolierten Rattenherzen unter Ischämie und anschließender Reperfusion untersucht.
Wird der Coronarfluß isolierter Herzen um 75 % gedrosselt, so reagiert das Herz zunächst mit einer Abnahme der Kontraktionsamplitude, ein Herzstillstand tritt erst innerhalb einer Stunde ein. Cardioprotektive Substanzen, während der Periode der Flußreduzierung dem Perfusionsmedium zugesetzt, verhindern den Abfall der Kontraktionsamplitude.
For the compound `C=CCN(C1=NCCN1)c1c(Cl)cccc1Cl` [Alinidin, reference compound], the minimal effective concentration is 8.3 µg/mL.

Turning to `COc1cc2c(cc1OC)C(C(CCc1ccccc1)C(=O)NCCc1ccncc1)NCC2` (stereo not drawn) [D], the minimal effective concentration was found to be 3 µg/mL. As for `CCCCNC(=O)C(CCc1ccccc1)C1NCCc2cc(OC)c(OC)cc21` (stereo not drawn) [E], the minimal effective concentration amounted to 1 µg/mL.
